Data taken from ChEMBL document CHEMBL4706692, “CC-90009: A Cereblon E3 Ligase Modulating Drug That Promotes Selective Degradation of GSPT1 for the Treatment of Acute Myeloid Leukemia” (J Med Chem, 2021).
The source made the active and inactive calls. The rule behind the calls is not given here.

How the values were obtained:
[1] = Selectivity index, ratio of IC50 for cytotoxicity against human THLE-2 cells to IC50 for antiproliferative activity against human KG-1 cells
KG-1 = assay: Antiproliferative activity against human KG-1 cells assessed as reduction in cell viability incubated for 72 hrs by cell titer glo assay; format: functional, cell-based; details: KG-1, 72 h
THLE-2 = assay: Cytotoxicity against human THLE-2 cells assessed as cell viability incubated for 72 hrs by cell titer glo assay; format: cell-based; details: THLE-2, 72 h
[2] = molecular target: Solute carrier organic anion transporter family member 1B1 (Homo sapiens, UniProt Q9Y6L6); assay: Inhibition of OATP1B1 (unknown origin) at upto 3 uM
[3] = molecular target: T1, Protein cereblon/Eukaryotic peptide chain release factor GTP-binding subunit ERF3A (Homo sapiens) (UniProt Q96SW2+P15170); assay: Protac activity at CRBN/GSPT1 in human KG-1 cells assessed as GSPT1 degradation by measuring accumulation of CHOP at 200 uM incubated for 4 hrs by western blot analysis; format: cell-based
T1 sequence (P15170 whole entry, looked up): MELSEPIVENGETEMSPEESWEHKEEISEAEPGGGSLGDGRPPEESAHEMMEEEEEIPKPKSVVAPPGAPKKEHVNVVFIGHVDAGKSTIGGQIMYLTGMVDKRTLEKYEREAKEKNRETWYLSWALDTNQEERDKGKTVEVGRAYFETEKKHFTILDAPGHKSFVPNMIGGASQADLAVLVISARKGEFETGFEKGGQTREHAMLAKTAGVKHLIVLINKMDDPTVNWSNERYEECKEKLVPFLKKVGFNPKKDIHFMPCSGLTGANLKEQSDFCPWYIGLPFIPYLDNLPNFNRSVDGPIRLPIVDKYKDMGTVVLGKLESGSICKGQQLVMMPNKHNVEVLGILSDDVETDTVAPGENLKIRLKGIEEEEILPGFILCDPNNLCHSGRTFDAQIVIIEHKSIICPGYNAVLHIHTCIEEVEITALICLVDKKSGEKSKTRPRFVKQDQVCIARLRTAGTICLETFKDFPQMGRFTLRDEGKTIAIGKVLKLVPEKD
T1 sequence (Q96SW2 whole entry, looked up): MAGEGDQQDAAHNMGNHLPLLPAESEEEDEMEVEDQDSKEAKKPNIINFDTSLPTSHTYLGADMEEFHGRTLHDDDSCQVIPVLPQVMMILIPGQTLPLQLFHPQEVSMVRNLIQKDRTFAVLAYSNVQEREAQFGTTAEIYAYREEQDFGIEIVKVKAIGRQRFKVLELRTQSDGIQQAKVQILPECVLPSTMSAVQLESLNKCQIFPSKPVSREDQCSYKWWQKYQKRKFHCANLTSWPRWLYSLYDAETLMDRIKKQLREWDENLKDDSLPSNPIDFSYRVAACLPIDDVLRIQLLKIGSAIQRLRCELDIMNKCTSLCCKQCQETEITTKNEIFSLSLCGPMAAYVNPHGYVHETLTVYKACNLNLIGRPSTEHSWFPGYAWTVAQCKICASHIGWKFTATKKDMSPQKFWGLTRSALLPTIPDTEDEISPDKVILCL

[4] = molecular target: Muscarinic acetylcholine receptor M1 (Homo sapiens) (UniProt P11229); assay: Inhibition of human muscarinic M1 receptor at 10 uM relative to control
[5] = molecular target: Protein cereblon/Zinc finger protein Aiolos (Homo sapiens, UniProt Q96SW2+Q9UKT9); assay: Protac activity at CRBN/IKZF3 (unknown origin) assessed as IKZF3 degradation; format: protein assay
Chain of Protein cereblon/Zinc finger protein Aiolos (Q96SW2 whole entry): as the sequence (Q96SW2 whole entry, looked up) above
Chain of Protein cereblon/Zinc finger protein Aiolos (Q9UKT9 whole entry): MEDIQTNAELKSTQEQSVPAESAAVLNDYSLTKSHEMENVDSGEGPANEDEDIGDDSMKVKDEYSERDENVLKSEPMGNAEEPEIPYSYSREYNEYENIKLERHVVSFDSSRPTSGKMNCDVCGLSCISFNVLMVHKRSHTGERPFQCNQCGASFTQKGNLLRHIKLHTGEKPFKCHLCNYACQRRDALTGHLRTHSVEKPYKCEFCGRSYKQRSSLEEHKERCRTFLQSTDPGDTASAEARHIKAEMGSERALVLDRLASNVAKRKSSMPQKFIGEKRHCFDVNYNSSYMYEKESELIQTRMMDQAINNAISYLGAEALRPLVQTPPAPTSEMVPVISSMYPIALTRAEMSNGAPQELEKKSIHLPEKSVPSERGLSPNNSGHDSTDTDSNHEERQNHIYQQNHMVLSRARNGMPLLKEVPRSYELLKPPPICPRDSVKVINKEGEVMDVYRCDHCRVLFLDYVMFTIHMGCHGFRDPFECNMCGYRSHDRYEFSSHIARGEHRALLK

[6] = molecular target: T1, Protein cereblon/Eukaryotic peptide chain release factor GTP-binding subunit ERF3A (Homo sapiens); assay: Protac activity at CRBN/GSPT1 in CD3+ T cells derived from patients assessed as reduction of GSPT1 levels at 2.4 mg, iv administered for 5 days by flow cytometry analysis relative to control; format: organism-based; parameters: scale not given: the % may be the effect or the level left; details: CD3-positive T cell, time 5.0 day
[7] = Toxicity in cynomolgus monkey assessed as effect on cardiovascular system; parameters: species or system Macaca fascicularis; details: in vivo
[8] = Volume of distribution in iv dosed acute myeloid leukemia patient; format: ADME, organism-based; details: human, in vivo
[9] = molecular target: Solute carrier organic anion transporter family member 1B3 (Homo sapiens, UniProt Q9NPD5); assay: Inhibition of OATP1B3 (unknown origin) at upto 3 uM
Chain of Solute carrier organic anion transporter family member 1B3 (Q9NPD5 whole entry): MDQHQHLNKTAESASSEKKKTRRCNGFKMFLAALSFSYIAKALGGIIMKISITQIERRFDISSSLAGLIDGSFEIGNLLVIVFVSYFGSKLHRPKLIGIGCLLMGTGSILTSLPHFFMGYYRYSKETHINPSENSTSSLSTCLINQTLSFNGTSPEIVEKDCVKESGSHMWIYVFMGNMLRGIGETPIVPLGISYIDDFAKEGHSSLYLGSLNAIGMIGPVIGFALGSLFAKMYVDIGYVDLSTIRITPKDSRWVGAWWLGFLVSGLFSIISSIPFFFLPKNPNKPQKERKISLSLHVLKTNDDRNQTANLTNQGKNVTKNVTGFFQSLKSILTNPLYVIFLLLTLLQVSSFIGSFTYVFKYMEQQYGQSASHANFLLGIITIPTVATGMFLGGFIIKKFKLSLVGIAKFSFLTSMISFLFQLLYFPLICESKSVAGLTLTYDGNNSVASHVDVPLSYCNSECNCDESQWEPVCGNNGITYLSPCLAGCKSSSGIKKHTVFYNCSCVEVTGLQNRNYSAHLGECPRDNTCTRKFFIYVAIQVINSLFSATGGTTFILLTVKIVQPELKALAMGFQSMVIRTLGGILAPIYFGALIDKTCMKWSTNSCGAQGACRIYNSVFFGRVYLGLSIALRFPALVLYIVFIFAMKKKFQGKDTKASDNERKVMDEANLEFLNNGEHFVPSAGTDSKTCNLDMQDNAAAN

[10] = Clearance in CD-IGS rat at 2 mg/kg, iv administered as bolus dose; format: ADME, organism-based; details: in vivo
[11] = molecular target: Solute carrier family 22 member 6 (Homo sapiens, UniProt Q4U2R8); assay: Inhibition of OAT1 (unknown origin) at upto 3 uM
[12] = molecular target: T1, Protein cereblon/Eukaryotic peptide chain release factor GTP-binding subunit ERF3A (Homo sapiens); assay: Protac activity at CRBN/GSPT1 in human DF15 cells assessed as in depth GSPT1 degradation incubated for 4 hrs by hunter detection reagent based luminescence assay; format: cell-based
[13] = molecular target: T1, Protein cereblon/Eukaryotic peptide chain release factor GTP-binding subunit ERF3A (Homo sapiens); assay: Protac activity at CRBN/GSPT1 in human KG-1 cells assessed as GSPT1 degradation at 1 uM incubated for 4 hrs in presence of neddylation inhibitor MLN4924 by western blot analysis; format: cell-based
[14] = molecular target: Multidrug and toxin extrusion protein 2 (Homo sapiens, UniProt Q86VL8); assay: Inhibition of MATE2 (unknown origin) at upto 3 uM
Chain of Multidrug and toxin extrusion protein 2 (Q86VL8 whole entry): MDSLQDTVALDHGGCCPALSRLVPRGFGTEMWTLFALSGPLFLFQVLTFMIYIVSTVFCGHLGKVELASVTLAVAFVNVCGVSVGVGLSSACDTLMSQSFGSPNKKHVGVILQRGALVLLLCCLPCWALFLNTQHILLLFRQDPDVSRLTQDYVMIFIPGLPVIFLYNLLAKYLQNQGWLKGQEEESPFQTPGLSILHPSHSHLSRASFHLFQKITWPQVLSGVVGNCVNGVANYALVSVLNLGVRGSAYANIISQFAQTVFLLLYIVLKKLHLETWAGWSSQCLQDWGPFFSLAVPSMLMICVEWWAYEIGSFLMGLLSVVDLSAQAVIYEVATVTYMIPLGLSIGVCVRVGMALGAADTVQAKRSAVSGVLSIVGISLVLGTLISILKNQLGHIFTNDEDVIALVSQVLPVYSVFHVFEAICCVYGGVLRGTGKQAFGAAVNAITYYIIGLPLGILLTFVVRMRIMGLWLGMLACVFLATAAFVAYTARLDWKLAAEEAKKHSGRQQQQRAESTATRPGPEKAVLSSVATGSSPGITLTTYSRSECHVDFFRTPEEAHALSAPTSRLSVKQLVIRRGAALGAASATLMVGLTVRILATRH

[15] = Total clearance in iv dosed acute myeloid leukemia patient; format: ADME, organism-based; details: human, in vivo
[16] = molecular target: T1, Protein cereblon/Eukaryotic peptide chain release factor GTP-binding subunit ERF3A (Homo sapiens); assay: Protac activity at CRBN/GSPT1 in human DF-15 cells assessed as in depth GSPT1 degradation incubated for 20 hrs by hunter detection reagent based luminescence assay relative to control; format: cell-based; details: DF15
[17] = MRT in cynomolgus monkey at 1 mg/kg, iv administered as bolus dose; format: ADME, organism-based, Macaca fascicularis; details: in vivo
[18] = Volume of distribution at steady state in cynomolgus monkey at 1 mg/kg, iv administered as bolus dose; format: ADME, organism-based, Macaca fascicularis; details: in vivo, read-out: Vdss
[19] = molecular target: Broad substrate specificity ATP-binding cassette transporter ABCG2 (Homo sapiens, UniProt Q9UNQ0); assay: Inhibition of BCRP (unknown origin) at upto 3 uM
Chain of Broad substrate specificity ATP-binding cassette transporter ABCG2 (Q9UNQ0 whole entry): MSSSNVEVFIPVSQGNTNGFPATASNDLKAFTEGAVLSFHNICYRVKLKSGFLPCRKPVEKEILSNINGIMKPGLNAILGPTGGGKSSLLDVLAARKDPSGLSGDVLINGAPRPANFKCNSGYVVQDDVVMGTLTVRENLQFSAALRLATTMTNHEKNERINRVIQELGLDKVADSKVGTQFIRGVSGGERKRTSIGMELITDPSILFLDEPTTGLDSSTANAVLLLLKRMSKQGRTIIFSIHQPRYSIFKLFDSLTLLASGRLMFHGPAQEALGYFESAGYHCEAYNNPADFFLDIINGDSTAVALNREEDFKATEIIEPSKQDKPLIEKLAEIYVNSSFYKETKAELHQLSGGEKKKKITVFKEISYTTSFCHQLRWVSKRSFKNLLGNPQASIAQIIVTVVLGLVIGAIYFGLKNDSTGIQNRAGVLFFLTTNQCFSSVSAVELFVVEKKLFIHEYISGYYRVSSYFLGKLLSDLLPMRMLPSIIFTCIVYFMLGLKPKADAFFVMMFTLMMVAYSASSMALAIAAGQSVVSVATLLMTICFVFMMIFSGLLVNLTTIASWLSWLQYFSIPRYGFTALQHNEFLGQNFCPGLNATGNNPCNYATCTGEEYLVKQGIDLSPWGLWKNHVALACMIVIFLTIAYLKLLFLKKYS

[20] = molecular target: T1, Protein cereblon/Eukaryotic peptide chain release factor GTP-binding subunit ERF3A (Homo sapiens); assay: Protac activity at CRBN/GSPT1 in CD3+ T cells derived from patients assessed as reduction of GSPT1 levels in peripheral blood blast administered intravenously for 5 days by flow cytometry analysis; format: cell-based; details: CD3-positive T cell, time 5.0 day
[21] = molecular target: T1, Protein cereblon/Eukaryotic peptide chain release factor GTP-binding subunit ERF3A (Homo sapiens); assay: Protac activity at CRBN/GSPT1 in human NB-4 cells assessed as induction of GSPT1 degradation at 0.001 to 1 uM incubated for 4 hrs by western blot analysis; format: cell-based; details: dose 0.001-1 µM
[22] = molecular target: T1, Protein cereblon/Eukaryotic peptide chain release factor GTP-binding subunit ERF3A (Homo sapiens); assay: Protac activity at CRBN/GSPT1 in human KG-1 cells assessed as GSPT1 degradation by measuring accumulation of ATF4 at 200 uM incubated for 4 hrs by western blot analysis; format: cell-based
[23] = molecular target: ATP-binding cassette sub-family C member 2 (Homo sapiens, UniProt Q92887); assay: Inhibition of MRP2 (unknown origin) at upto 3 uM
[24] = Clearance in CD1 mouse at 2 mg/kg, iv administered as bolus dose; format: ADME, organism-based; details: in vivo
[25] = Volume of distribution at steady state in CD-IGS rat at 2 mg/kg, iv administered as bolus dose; format: ADME, organism-based; details: in vivo, read-out: Vdss
[26] = molecular target: T1, Protein cereblon/Eukaryotic peptide chain release factor GTP-binding subunit ERF3A (Homo sapiens); assay: Protac activity at CRBN/GSPT1 in human KG-1 cells assessed as GSPT1 degradation at 1 uM incubated for 4 hrs in presence of proteasome inhibitor bortezomib by western blot analysis; format: cell-based
[27] = molecular target: Voltage-gated inwardly rectifying potassium channel KCNH2 (Homo sapiens, UniProt Q12809); assay: Inhibition of human ERG
[28] = Volume of distribution at steady state in CD1 mouse at 2 mg/kg, iv administered as bolus dose; format: ADME, organism-based; details: in vivo, read-out: Vdss
Cereblon/Ikaros = Cereblon/Ikaros (Homo sapiens, UniProt Q13422+Q96SW2); assay: Protac activity at CRBN/IKZF1 (unknown origin) assessed as IKZF1 degradation; format: protein-complex assay
Chain of Cereblon/Ikaros (Q96SW2 whole entry): as the sequence (Q96SW2 whole entry, looked up) above
Chain of Cereblon/Ikaros (Q13422 whole entry): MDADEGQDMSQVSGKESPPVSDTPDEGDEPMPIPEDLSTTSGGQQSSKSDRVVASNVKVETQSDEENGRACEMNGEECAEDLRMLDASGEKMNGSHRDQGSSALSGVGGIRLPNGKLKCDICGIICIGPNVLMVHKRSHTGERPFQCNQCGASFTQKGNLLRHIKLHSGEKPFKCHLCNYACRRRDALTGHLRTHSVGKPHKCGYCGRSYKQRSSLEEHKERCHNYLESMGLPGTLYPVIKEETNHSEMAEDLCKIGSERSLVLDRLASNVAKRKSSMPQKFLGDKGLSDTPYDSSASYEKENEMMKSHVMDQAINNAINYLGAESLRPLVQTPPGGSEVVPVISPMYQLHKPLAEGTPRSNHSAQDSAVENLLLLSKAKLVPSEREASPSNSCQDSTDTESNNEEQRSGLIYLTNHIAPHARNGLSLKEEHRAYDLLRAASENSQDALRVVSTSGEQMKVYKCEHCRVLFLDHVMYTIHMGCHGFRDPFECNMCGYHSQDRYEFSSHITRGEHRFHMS

[29] = Terminal half life in iv dosed acute myeloid leukemia patient; format: ADME, organism-based; details: human, in vivo, read-out: beta t1/2 (converted)
[30] = molecular target: T1, Protein cereblon/Eukaryotic peptide chain release factor GTP-binding subunit ERF3A (Homo sapiens); assay: Protac activity at CRBN/GSPT1 in human KG-1 cells assessed as GSPT1 degradation at 1 uM incubated for 4 hrs by western blot analysis; format: cell-based
Cytochrome P450 2C19 = Cytochrome P450 2C19 (Homo sapiens, UniProt P33261); assay: Inhibition of CYP2C19 (unknown origin); format: ADME
[31] = molecular target: Solute carrier family 22 member 2 (Homo sapiens, UniProt O15244); assay: Inhibition of OCT2 (unknown origin) at upto 3 uM
Chain of Solute carrier family 22 member 2 (O15244 whole entry): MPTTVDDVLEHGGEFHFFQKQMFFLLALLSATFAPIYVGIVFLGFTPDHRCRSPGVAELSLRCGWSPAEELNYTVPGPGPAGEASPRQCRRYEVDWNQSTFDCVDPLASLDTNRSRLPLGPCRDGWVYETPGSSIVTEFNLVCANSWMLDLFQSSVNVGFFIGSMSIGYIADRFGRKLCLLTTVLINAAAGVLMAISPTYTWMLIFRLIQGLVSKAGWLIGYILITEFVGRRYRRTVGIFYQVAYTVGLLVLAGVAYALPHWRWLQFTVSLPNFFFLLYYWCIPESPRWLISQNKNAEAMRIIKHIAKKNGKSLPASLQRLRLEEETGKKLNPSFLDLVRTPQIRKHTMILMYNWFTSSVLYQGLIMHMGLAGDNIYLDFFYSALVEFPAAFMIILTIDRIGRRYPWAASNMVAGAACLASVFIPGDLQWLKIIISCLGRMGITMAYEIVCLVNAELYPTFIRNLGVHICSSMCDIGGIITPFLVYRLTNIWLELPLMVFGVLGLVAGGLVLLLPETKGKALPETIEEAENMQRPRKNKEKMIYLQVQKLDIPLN

[32] = molecular target: Muscarinic acetylcholine receptor M2 (Homo sapiens) (UniProt P08172); assay: Inhibition of human muscarinic M2 receptor at 10 uM relative to control
[33] = Clearance in cynomolgus monkey at 1 mg/kg, iv administered as bolus dose; format: ADME, organism-based, Macaca fascicularis; details: in vivo
Homo sapiens = species on record: Homo sapiens; assay: Inhibition of P-gp (unknown origin) at upto 3 uM; details: dose microM <=3
[34] = molecular target: T1, Protein cereblon/Eukaryotic peptide chain release factor GTP-binding subunit ERF3A (Homo sapiens); assay: Protac activity at CRBN/GSPT1 in human DF-15 cells assessed as maximum GSPT1 degradation incubated for 20 hrs by hunter detection reagent based luminescence assay relative to control; format: cell-based; details: DF15
[35] = MRT in CD-IGS rat at 2 mg/kg, iv administered as bolus dose; format: ADME, organism-based; details: in vivo
[36] = molecular target: Organic anion transporter 3 (Homo sapiens, UniProt Q8TCC7); assay: Inhibition of OAT3 (unknown origin) at upto 3 uM
Bone marrow cell = assay: Antiproliferative activity in bone marrow cells derived from AML patients assessed as cell growth inhibition; format: functional, cell-based; details: Homo sapiens
[37] = molecular target: T1, Protein cereblon/Eukaryotic peptide chain release factor GTP-binding subunit ERF3A (Homo sapiens); assay: Protac activity at CRBN/GSPT1 in CD3+ T cells derived from patients assessed as reduction of GSPT1 levels in T cells administered intravenously for 5 days by flow cytometry analysis; details: CD3-positive T cell, time 5.0 day
HL-60 [38] = assay: Antitumor activity against human HL-60 cells in xenografted model assessed as reduction in CD33+/CD45+ in bone marrow at 2.5 mg/kg, BID administered for 10 consecutive days relative to control; format: functional; details: HL-60, 240 h, time 10 day
HL-60 [39] = assay: Antitumor activity against human HL-60 cells in xenografted model assessed as reduction in CD33+/CD45+ in bone marrow at 5 mg/kg, BID administered for 5 consecutive days relative to control; format: functional; details: HL-60, 120 h, time 5 day
CYP2C9 = CYP2C9 (Homo sapiens, UniProt P11712); assay: Inhibition of CYP2C9 (unknown origin) at 2.5 uM relative to control; format: ADME
[40] = molecular target: T1, Protein cereblon/Eukaryotic peptide chain release factor GTP-binding subunit ERF3A (Homo sapiens); assay: Protac activity at CRBN/GSPT1 in human DF-15 cells assessed as GSPT1 degradation at 0.2 to 3 uM incubated for 4 to 6 hrs by Incell-hunter detection reagent based luminescence assay relative to control; format: cell-based; details: DF15, dose 0.2-3 µM, time 4-6 hrs
[41] = MRT in CD1 mouse at 2 mg/kg, iv administered as bolus dose; format: ADME, organism-based; details: in vivo
[42] = molecular target: T1, Protein cereblon/Eukaryotic peptide chain release factor GTP-binding subunit ERF3A (Homo sapiens); assay: Protac activity at CRBN/GSPT1 in human DF15 cells assessed as maximum GSPT1 degradation incubated for 4 hrs by hunter detection reagent based luminescence assay relative to control; format: cell-based
[43] = molecular target: T1, Protein cereblon/Eukaryotic peptide chain release factor GTP-binding subunit ERF3A (Homo sapiens); assay: Protac activity at CRBN/GSPT1 in human KG-1 cells assessed as GSPT1 degradation by measuring accumulation of ATF3 at 200 uM incubated for 4 hrs by western blot analysis; format: cell-based

O=C(Cc1ccccc1)NCc1ccc2c(c1)CN(C1CCC(=O)NC1=O)C2=O (stereo unspecified)
Ratio IC50 [1]: 6
IC50 (KG-1): 37 nM
IC50 (THLE-2): 231 nM

O=C1CCC(N2Cc3cc(CNC(=O)C(F)(F)c4ccccc4)ccc3C2=O)C(=O)N1 (stereo unspecified)
Ratio IC50 [1]: >100
IC50 (KG-1): 97 nM
IC50 (THLE-2): > 10000 nM

O=C1CCC(N2Cc3cc(CNC(=O)C(F)(F)c4ccc(Cl)cc4)ccc3C2=O)C(=O)N1 (stereo unspecified)
inhibition (INH) [2]: Not Active
Activity [3]: Active
inhibition [4]: > 50%
EC50 [5]: > 10000 nM
Activity [6]: 90%
Activity [7]: Non-Toxic
Vd [8]: 61.7 L
inhibition (INH) [9]: Not Active
clearance [10]: 28.3 mL/min/kg
inhibition (INH) [11]: Not Active
Activity [12]: Active
Activity [13]: inactive
inhibition (INH) [14]: Not Active
clearance [15]: 116 mL/min
Activity [16]: Active
MRT [17]: 4 h
Vd [18]: 1.1 L/kg
inhibition (INH) [19]: Not Active
Activity [20]: Dose-dependent effect
Activity [21]: Active
Activity [22]: Active
inhibition (INH) [23]: Not Active
clearance [24]: 67.9 mL/min/kg
Vd [25]: 2.2 L/kg
Activity [26]: inactive
IC50 [27]: 5300 nM
Vd [28]: 1 L/kg
EC50 (Cereblon/Ikaros): > 10000 nM
half-life [29]: 9.3 h
Activity [30]: Active
IC50 (Cytochrome P450 2C19): 1530 nM
inhibition (INH) [31]: Not Active
inhibition [32]: > 50%
clearance [33]: 6 mL/min/kg
inhibition (Homo sapiens): inactive
Emax [34]: 88%
MRT [35]: 1.3 h
inhibition (INH) [36]: Not Active
EC50 (Bone marrow cell): 6 nM
Activity [37]: Dose-dependent effect
inhibition in vivo at 2.5 mg/kg (HL-60 [38]): 71.5%
inhibition in vivo at 5 mg/kg (HL-60 [39]): 54%
inhibition at 2.5 µM (CYP2C9): 41%
Activity [40]: 75%
MRT [41]: 0.24 h
Emax [42]: 51%
Activity [43]: Active

O=C1CCC(N2Cc3cc(CNC(=O)Nc4ccccc4)ccc3C2=O)C(=O)N1 (stereo unspecified)
Ratio IC50 [1]: 4
IC50 (KG-1): 15 nM
IC50 (THLE-2): 60 nM
